{
  "source": "paper PMC7352059",
  "about": "(Biotechnology Reports, 2020)",
  "experiment_in_all_cases": "dopachrome formation, absorbance […] nm, non-linear regression",
  "details_in_all_cases": "free enzyme; 0.05 M Na-phosphate pH 6.5; 1-30 mM L-DOPA",
  "key": {"tyrosinase from D. alata": {"tested_on": "tyrosinase from D. alata", "type": "biochemical, Dioscorea alata"}, "[1]": {"tested_on": "tyrosinase from C. esculenta", "type": "biochemical, Colocasia esculenta"}, "[2]": {"tested_on": "tyrosinase from D. rotundata", "type": "biochemical, Dioscorea cayenensis subsp. rotundata"}, "[3]": {"tested_on": "tyrosinase from D. praehensilis", "type": "biochemical, Dioscorea praehensilis"}},
  "data": [
    {"smiles": "N[C@@H](Cc1ccc(O)c(O)c1)C(=O)O", "note": "[L-DOPA, 3,4-dihydroxyphenyl-L-alanine]", "values": [
      {"measurement": "Km", "setting": "tyrosinase from D. alata", "value": "20 ± 11", "unit": "mM"},
      {"measurement": "Km", "setting": "[1]", "value": "23.7 ± 14", "unit": "mM"},
      {"measurement": "Km", "setting": "[2]", "value": "6.8 ± 2.6", "unit": "mM"},
      {"measurement": "Km", "setting": "[3]", "value": "9.6 ± 3.7", "unit": "mM"}
    ]}
  ]
}
